Test results from the NIST ThermoML archive (doi:10.1021/acs.jced.8b01053).
Numbers after ± are expanded uncertainties.

Settings: Liquid, Ebulliometric method (Recirculating still)

SMILES: CCOC(C)=O [ethyl acetate]
- vapor or sublimation pressure (330.01 K): 50 ± 1 kPa
- vapor or sublimation pressure (349.53 K): 100 ± 1 kPa

SMILES: CC(=O)OCCC(C)C [3-methylbutyl ethanoate]
- vapor or sublimation pressure (391.07 K): 50 ± 1 kPa
- vapor or sublimation pressure (413.46 K): 100 ± 1 kPa
